Data as given in ChEMBL document CHEMBL1275431, “Telavancin penetration into human epithelial lining fluid determined by population pharmacokinetic modeling and Monte Carlo simulation” (Antimicrob Agents Chemother, 2008).

Key:
[1] = Penetration ratio, ratio of AUC in human epithelial lining fluid to fAUC in human plasma at 750 mg administered as single dose; assay type: ADME; conditions: in vivo
[2] = Plasma protein binding in human plasma at 750 mg administered as single dose; assay type: ADME, organism-based; conditions: read-out: PPB (converted)
[3] = AUC (0 to infinity) in human epithelial lining fluid at 750 mg administered as single dose; assay type: ADME, tissue-based; parameters: dose 750 mg, time infinity

- Ratio [1]: 1.01
- fraction unbound [2]: 0.1
- AUC(0-inf) [3]: 74800 ng·h/mL
SMILES: CCCCCCCCCCNCCN[C@@]1(C)C[C@H](O[C@H]2[C@H](Oc3c4cc5cc3Oc3ccc(cc3Cl)[C@@H](O)[C@@H](NC(=O)[C@@H](CC(C)C)NC)C(=O)N[C@@H](CC(N)=O)C(=O)N[C@H]5C(=O)N[C@H]3C(=O)N[C@H](C(=O)N[C@H](C(=O)O)c5cc(O)c(CNCP(=O)(O)O)c(O)c5-c5cc3ccc5O)[C@H](O)c3ccc(c(Cl)c3)O4)O[C@H](CO)[C@@H](O)[C@@H]2O)O[C@@H](C)[C@H]1O [TELAVANCIN]
